Laboratory results as given in ChEMBL document CHEMBL4725218, “Deep Learning Enhancing Kinome-Wide Polypharmacology Profiling: Model Construction and Experiment Validation” (J Med Chem, 2020).

What was measured:
[1] = target: Mast/stem cell growth factor receptor Kit (Homo sapiens) (UniProt P10721); test: Inhibition of human c-Kit assessed as remaining enzyme activity at 1 uM
[2] = target: Vascular endothelial growth factor receptor 1 (Homo sapiens) (UniProt P17948); test: Inhibition of human VEGFR1 assessed as remaining enzyme activity at 1 uM
[3] = target: RAF proto-oncogene serine/threonine-protein kinase (Homo sapiens) (UniProt P04049); test: Inhibition of human RAF1 assessed as remaining enzyme activity at 1 uM
Sequence of RAF proto-oncogene serine/threonine-protein kinase (Homo sapiens) (P04049 whole entry): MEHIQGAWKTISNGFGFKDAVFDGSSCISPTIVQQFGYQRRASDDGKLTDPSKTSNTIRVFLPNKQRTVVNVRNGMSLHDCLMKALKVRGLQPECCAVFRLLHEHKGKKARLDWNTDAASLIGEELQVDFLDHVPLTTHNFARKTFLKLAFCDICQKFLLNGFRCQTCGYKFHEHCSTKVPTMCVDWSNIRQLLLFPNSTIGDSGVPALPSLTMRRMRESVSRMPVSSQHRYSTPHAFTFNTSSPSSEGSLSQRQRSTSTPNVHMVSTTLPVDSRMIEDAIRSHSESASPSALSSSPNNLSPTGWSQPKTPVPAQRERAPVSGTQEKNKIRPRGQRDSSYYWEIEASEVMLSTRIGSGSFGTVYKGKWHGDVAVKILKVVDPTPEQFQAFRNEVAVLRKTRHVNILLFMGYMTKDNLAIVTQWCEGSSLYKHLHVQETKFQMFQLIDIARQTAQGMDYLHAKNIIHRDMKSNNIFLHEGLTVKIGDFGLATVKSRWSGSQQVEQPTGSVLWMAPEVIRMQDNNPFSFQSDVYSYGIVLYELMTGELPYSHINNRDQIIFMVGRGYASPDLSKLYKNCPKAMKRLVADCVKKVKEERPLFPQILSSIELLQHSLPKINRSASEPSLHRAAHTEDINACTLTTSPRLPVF

[4] = target: Mitogen-activated protein kinase 14 (Homo sapiens) (UniProt Q16539); test: Inhibition of human p38alpha assessed as remaining enzyme activity at 1 uM
[5] = target: Mitogen-activated protein kinase kinase kinase 20 (Homo sapiens) (UniProt Q9NYL2); test: Inhibition of human ZAK assessed as remaining enzyme activity at 1 uM
Sequence of Mitogen-activated protein kinase kinase kinase 20 (Homo sapiens) (Q9NYL2 2-800 limits assumed): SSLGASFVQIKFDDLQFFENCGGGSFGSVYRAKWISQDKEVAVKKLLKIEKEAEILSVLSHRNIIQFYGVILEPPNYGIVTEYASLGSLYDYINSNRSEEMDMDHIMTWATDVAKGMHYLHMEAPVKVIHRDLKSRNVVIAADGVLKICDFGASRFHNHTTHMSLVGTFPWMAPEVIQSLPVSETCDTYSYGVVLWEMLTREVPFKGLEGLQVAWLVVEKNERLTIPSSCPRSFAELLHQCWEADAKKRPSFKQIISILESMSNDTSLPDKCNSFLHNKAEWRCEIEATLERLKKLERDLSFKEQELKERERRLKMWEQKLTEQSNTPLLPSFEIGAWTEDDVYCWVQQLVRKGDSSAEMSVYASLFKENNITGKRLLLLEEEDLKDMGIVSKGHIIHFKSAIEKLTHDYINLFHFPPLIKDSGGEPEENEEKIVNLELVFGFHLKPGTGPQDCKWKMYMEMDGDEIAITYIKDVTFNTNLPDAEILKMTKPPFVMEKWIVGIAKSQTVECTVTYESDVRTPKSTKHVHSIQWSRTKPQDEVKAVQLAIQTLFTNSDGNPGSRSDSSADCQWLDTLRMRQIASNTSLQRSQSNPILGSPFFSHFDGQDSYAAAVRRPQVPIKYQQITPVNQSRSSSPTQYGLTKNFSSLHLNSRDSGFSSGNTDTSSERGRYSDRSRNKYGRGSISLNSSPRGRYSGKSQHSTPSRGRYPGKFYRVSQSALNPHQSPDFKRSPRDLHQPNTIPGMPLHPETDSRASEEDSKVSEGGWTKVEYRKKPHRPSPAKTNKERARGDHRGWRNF

[6] = target: Tyrosine-protein kinase FRK (Homo sapiens) (UniProt P42685); test: Inhibition of human PTK5 assessed as remaining enzyme activity at 1 uM
Sequence of Tyrosine-protein kinase FRK (Homo sapiens) (P42685 whole entry): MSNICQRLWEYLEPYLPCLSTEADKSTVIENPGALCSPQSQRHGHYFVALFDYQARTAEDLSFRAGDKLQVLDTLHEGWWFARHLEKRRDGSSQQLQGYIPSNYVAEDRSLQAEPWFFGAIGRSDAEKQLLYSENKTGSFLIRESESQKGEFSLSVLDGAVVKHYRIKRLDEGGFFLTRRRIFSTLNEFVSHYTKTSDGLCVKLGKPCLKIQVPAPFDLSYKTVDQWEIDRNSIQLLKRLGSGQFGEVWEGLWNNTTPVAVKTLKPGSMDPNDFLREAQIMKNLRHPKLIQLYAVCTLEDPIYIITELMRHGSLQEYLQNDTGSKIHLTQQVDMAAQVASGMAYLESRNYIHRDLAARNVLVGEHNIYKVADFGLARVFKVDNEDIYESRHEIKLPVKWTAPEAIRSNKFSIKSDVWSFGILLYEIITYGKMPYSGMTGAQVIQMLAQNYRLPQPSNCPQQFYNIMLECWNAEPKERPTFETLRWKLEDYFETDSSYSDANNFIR

[7] = target: T1, Ephrin type-A receptor 8 (Homo sapiens) (UniProt P29322); test: Inhibition of human EphA8 assessed as remaining enzyme activity at 1 uM
T1 sequence (whole entry): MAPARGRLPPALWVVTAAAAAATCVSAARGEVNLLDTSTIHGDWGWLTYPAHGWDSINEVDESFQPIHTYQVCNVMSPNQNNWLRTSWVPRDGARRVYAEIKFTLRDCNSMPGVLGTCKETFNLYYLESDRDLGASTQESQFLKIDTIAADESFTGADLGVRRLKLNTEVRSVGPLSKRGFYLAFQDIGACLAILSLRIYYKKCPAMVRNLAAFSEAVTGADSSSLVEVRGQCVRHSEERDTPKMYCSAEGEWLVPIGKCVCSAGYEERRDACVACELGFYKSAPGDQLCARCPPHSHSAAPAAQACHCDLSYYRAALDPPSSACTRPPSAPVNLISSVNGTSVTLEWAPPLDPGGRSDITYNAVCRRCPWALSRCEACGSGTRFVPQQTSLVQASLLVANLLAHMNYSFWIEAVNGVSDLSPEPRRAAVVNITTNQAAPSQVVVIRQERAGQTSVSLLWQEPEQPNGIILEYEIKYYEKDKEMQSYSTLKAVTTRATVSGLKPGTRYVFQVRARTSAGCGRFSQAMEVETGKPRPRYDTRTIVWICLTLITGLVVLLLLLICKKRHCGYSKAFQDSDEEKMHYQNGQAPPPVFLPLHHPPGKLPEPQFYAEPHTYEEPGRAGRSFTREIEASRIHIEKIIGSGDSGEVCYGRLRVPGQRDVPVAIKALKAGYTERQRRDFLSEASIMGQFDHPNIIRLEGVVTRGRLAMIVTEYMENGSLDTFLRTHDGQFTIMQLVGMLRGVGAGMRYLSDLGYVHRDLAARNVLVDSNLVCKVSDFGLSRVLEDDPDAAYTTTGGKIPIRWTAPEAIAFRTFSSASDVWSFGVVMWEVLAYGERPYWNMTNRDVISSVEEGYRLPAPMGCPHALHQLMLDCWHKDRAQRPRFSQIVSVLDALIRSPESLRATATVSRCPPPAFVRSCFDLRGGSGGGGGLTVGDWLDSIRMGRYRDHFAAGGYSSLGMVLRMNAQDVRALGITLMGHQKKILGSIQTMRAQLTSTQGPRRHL

[8] = target: RAF proto-oncogene serine/threonine-protein kinase (Homo sapiens) (UniProt P04049); test: Inhibition of human C-Raf assessed as remaining enzyme activity at 1 uM
[9] = target: Serine/threonine-protein kinase 10 (Homo sapiens) (UniProt O94804); test: Inhibition of human LOK assessed as remaining enzyme activity at 1 uM
Sequence of Serine/threonine-protein kinase 10 (Homo sapiens) (O94804 whole entry, looked up): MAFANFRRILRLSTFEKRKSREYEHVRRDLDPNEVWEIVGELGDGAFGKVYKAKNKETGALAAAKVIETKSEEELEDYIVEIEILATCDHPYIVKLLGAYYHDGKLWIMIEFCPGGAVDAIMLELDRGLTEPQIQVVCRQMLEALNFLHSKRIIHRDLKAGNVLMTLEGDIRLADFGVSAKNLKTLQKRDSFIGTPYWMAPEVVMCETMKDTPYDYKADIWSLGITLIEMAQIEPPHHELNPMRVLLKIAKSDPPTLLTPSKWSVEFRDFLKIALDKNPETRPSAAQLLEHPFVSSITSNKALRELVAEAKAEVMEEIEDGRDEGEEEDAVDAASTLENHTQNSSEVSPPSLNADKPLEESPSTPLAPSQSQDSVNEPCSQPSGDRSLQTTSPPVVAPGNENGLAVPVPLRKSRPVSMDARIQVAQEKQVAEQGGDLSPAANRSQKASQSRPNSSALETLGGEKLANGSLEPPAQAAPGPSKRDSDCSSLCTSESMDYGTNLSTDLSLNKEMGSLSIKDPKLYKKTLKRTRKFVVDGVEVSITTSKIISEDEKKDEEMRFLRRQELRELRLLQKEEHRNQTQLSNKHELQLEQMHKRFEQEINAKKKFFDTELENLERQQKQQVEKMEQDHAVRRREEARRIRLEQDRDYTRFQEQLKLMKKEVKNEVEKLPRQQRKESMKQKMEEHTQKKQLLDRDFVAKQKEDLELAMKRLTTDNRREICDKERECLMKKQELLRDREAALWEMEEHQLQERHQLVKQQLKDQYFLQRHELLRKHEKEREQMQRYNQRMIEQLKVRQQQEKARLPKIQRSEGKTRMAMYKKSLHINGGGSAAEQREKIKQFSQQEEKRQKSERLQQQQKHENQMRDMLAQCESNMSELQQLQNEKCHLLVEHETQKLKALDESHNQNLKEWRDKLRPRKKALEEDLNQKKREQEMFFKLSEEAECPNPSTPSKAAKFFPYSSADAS

[10] = target: Platelet-derived growth factor receptor alpha (Homo sapiens) (UniProt P16234); test: Inhibition of human PDGFRAlpha assessed as remaining enzyme activity at 1 uM
[11] = target: RAF proto-oncogene serine/threonine-protein kinase (Homo sapiens) (UniProt P04049); test: Inhibition of human RAF1 assessed as remaining enzyme activity at 0.1 uM
[12] = target: Tyrosine-protein kinase ABL1 (Mus musculus) (UniProt P00520); test: Inhibition of mouse Abl assessed as remaining enzyme activity at 0.1 uM
Sequence of Tyrosine-protein kinase ABL1 (Mus musculus) (P00520 whole entry): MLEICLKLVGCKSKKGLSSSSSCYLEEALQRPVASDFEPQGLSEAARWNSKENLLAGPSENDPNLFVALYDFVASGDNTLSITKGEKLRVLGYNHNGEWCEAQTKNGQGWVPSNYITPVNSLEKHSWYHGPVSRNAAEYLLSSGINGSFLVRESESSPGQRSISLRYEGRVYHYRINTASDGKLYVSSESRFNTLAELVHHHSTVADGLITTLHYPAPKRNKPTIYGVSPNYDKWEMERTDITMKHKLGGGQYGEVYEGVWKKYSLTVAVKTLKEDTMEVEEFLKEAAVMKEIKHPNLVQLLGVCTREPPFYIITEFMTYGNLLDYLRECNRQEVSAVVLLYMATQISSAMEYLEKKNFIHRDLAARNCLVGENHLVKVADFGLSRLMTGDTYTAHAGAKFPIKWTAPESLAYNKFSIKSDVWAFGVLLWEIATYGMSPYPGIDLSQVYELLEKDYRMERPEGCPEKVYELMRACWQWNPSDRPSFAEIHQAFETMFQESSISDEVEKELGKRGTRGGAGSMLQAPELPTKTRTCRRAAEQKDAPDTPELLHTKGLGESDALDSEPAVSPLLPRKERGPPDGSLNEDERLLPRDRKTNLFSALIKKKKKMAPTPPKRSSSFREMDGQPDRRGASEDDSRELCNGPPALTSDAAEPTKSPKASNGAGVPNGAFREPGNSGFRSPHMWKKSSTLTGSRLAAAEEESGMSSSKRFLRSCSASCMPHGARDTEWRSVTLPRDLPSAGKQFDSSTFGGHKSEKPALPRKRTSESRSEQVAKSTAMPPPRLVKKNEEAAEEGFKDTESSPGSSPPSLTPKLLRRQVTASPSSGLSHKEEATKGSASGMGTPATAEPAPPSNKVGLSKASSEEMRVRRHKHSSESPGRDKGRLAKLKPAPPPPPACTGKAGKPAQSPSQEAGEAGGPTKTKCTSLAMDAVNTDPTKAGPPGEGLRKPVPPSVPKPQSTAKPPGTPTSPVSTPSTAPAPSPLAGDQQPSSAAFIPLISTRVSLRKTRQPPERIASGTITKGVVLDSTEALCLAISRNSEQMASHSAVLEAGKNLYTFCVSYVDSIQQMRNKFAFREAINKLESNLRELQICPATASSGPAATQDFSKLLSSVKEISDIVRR

[13] = target: Mitogen-activated protein kinase kinase kinase kinase 5 (Homo sapiens) (UniProt Q9Y4K4); test: Inhibition of human MAP4K5 assessed as remaining enzyme activity at 0.1 uM
[14] = target: BDNF/NT-3 growth factors receptor (Homo sapiens) (UniProt Q16620); test: Inhibition of human TRKB assessed as remaining enzyme activity at 0.1 uM
Sequence of BDNF/NT-3 growth factors receptor (Homo sapiens) (Q16620 32-822 limits assumed): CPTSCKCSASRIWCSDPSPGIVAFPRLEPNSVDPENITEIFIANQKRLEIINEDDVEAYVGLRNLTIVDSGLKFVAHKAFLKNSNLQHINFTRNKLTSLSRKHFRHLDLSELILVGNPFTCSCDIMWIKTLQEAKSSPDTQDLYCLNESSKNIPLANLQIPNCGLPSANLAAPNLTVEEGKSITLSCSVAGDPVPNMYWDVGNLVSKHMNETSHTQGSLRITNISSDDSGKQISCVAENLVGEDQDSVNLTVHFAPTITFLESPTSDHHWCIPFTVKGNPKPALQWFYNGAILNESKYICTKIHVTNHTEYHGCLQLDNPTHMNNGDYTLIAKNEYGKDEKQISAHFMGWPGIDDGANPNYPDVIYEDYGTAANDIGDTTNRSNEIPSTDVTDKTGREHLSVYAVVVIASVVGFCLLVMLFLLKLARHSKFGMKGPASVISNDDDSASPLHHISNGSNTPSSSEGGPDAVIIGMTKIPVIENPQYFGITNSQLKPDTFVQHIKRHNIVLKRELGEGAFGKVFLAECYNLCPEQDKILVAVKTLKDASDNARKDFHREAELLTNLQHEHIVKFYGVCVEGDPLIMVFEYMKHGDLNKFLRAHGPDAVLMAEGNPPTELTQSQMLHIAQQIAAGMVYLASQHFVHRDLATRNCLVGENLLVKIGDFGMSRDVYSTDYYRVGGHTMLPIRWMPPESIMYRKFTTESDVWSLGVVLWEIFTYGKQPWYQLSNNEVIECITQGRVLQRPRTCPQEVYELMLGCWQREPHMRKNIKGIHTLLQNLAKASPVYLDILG

[15] = target: T1, Ephrin type-A receptor 8 (Homo sapiens); test: Inhibition of human EphA8 assessed as remaining enzyme activity at 0.1 uM
[16] = target: Tyrosine-protein kinase ABL1 (Homo sapiens) (UniProt P00519); test: Inhibition of human ABL assessed as remaining enzyme activity at 0.1 uM
[17] = target: Epithelial discoidin domain-containing receptor 1 (Homo sapiens) (UniProt Q08345); test: Inhibition of human DDR1 assessed as remaining enzyme activity at 0.1 uM
[18] = target: BDNF/NT-3 growth factors receptor (Homo sapiens) (UniProt Q16620); test: Inhibition of human TRKB assessed as remaining enzyme activity at 0.01 uM
[19] = target: Serine/threonine-protein kinase B-raf (Homo sapiens) (UniProt P15056); test: Inhibition of human B-Raf assessed as remaining enzyme activity at 0.01 uM

**Q.** What does the source list for `CNC(=O)c1cc(Oc2ccc(NC(=O)Nc3ccc(Cl)c(C(F)(F)F)c3)c(F)c2)ccn1`?
**A.** Activity [1]: -1%; Activity [2]: 3%; Activity [3]: 8%; Activity [4]: -6%; Activity [5]: -1%; Activity [6]: 3%; Activity [7]: 5%; Activity [8]: 8%; Activity [9]: 34%; Activity [10]: 35%; Activity [11]: 57%; Activity [12]: -7%; Activity [13]: 37%; Activity [14]: 53%; Activity [15]: 44%; Activity [16]: 49%; Activity [17]: 43%; Activity [18]: 100%; Activity [19]: 101%
